# Tested on: Sonic hedgehog signaling
# Assay: Clonal NIH-3T3 line with stably integrated Shh-responsive luciferase reporter (Shh-LIGHT/Shh-LIGHT2), inhibition of Sonic hedgehog induction
# Assay type: cell-based, mouse
# Conditions: for improvement of inhibitory activity by oxidation of the hydroxyl group to a ketone: versus the corresponding 3-hydroxyl compound (18, 20, 22, 33, 40, 50); for effect of N-alkyl modification on ability to block Shh signaling / effect of addition on inhibitory activity: SAR statement, relative to cyclopamine
# From the text: FIG. 2 relates to a sensitive assay for Shh signaling in NIH-3T3 cells. (A) Purification of cholesterol- and palmitate-modified mouse Sonic hedgehog signaling domain ShhNp. Detergent-insoluble proteolipid complexes were isolated from 293 cells expressing full-length Shh (M. K. Cooper, J. A. Porter, K. E. Young, P. A. Beachy, Science 280, 1603 (1998)), and ShhNp was purified to apparent homogeneity by immunoaffinity chromatography. […] We therefore used the detergent insolubility of cholesterol-modified ShhN and affinity chromatography to purify the processed ShhN protein (ShhNp) from a human 293 cell line engineered to express the full length mouse Shh construct. Detergent-insoluble complexes (DIGs) were isolated as described by Brown and Rose (1992), with the following modifications. Cells from a 150 mm dish were lysed and collected in 2 mL of lysis solution (10 mM NaHPO4, pH 6.5, 150 mM NaCl, 0.5 mM PMSF, 1% Triton X-100, 2 μg/ml Pepstatin A, 10 μg/ml leupeptin, 5 μg/ml aprotinin, 2 μg/ml E64) at 4° C. […] Low-density, flocculent material was collected (from original position of 18.125% step), diluted 5-fold in 10 mM NaHPO4, pH 6.5, 150 mM NaCl and harvested by centrifugation at 20,000×g for 15 min (all at 4° C.). […] Mass standards migrated as indicated. […] NIH-3T3 cells cotransfected with Gli-luc reporter and TK promoter-driven Renilla luciferase control were treated with the indicated concentrations of ShhNp for 2 days. Confluent cultures of NIH-3T3 cells were plated at 1:6 dilution to 24 or 96-well plates. On the following day, the cells were transfected with renilla luciferase (pRL-TK or pRL-SV40; Clontech) or β-galactosidase transfection control (10% w/w DNA), Gli-Luc reporter (40%) and the constructs indicated (50%) using Fugene 6 (Roche) transfection reagent (250 ng (24 well plate) or 100 ng (96 well plate) DNA/well, 3:1 ratio (v/w) of reagent to DNA). […] Firefly and Renilla luciferase and β-galactosidase activities were assayed from the cell lysates by luminometry using dual luciferase (Promega) and Galacto-Light (Tropix) kits, respectively. Luciferase activities are normalized relative to control; a representative experiment is shown. […] Error bars indicate one standard deviation. […] Cultures of Shh-LIGHT (open boxes) or SmoA1-LIGHT (filled diamonds) cells were plated to 96-well plates in a series of twofold dilutions. The NIH-3T3 cell clone Shh-LIGHT and Shh-LIGHT2 stably incorporating the Gli-luc reporter and TK-renilla vectors were established by cotransfection with a vector encoding G418 resistance (pSV-Neo), followed by selection with G418 and cell cloning. Subsequently, a clonal subline of Shh-LIGHT expressing activated Smo (SmoA1-LIGHT) was established using an expression vector that allows hygromycin selection (pcDNA3.1+ hygro; Invitrogen). […] The Shh-LIGHT cells were treated with 4 nM ShhNp, and Gli-luciferase reporter activity was assayed after 24 h. Fold induction of the reporter (% of maximum is relative to equally dense Shh-LIGHT control culture) and cell densities (% of maximum Renilla luciferase activity) were measured at the end of the experiment. Error bars indicate one standard deviation (quadruplicate wells).
# Relative reporter activity is normalized to maximum. […] Error bars in A and B indicate one standard deviation.
# [1] = Mus musculus, NIH3T3, concentration for 50% inhibition of Sonic hedgehog induction, Table II
# [2] = concentration for 50% inhibition of Sonic hedgehog induction, Table II
compound,measurement,setting,value
"CC1=C2C[C@H]3[C@@H](CC=C4C[C@@H](OC(=O)NCCNC(=O)CCc5ccccc5)CC[C@@]43C)[C@@H]2CC[C@]12O[C@@H]1C[C@H](C)CN[C@H]1[C@H]2C [Compound 8, 3O-dihydrocinnamoylethylenediaminecarbamoyl cyclopamine]",IC50 relative to cyclopamine (times higher),,~100 times
same,potency relative to cycloposine (3) (times weaker),,10 times
"CC1=C2C(=O)[C@H]3[C@@H](CC=C4C[C@@H](OC(=O)NCCNC(=O)CCc5ccccc5)CC[C@@]43C)[C@@H]2CC[C@]12O[C@@H]1C[C@H](C)CN[C@H]1[C@H]2C [Compound 12, 3O-dihydrocinnamoylethylenediaminecarbamoyl jervine]",IC50 relative to cyclopamine (times higher),,~100 times
same,potency relative to cycloposine (3) (times weaker),,10 times
same,IC50,[1],> 10000 nM
"CC1=C2C[C@H]3[C@@H](CC=C4C[C@@H](O)CC[C@@]43C)[C@@H]2CC[C@]12O[C@@H]1C[C@H](C)CN(CCNC(=O)CCc3ccccc3)[C@H]1[C@H]2C [Compound 18, N—(N′-Dihydrocinnamoyl aminoethyl)cyclopamine]",IC50,[1],> 100 nM
"CC1=C2C[C@H]3[C@@H](CC=C4CC(=O)CC[C@@]43C)[C@@H]2CC[C@]12O[C@@H]1C[C@H](C)CN(CCNC(=O)CCc3ccccc3)[C@H]1[C@H]2C [Compound 19, 3-Keto, N—(N′-dihydrocinnamoylaminoethyl)cyclopamine]",IC50,[1],> 10 nM
same,improvement of inhibitory activity by oxidation of the hydroxyl group to a ketone,,approximately two-fold
"CC1=C2C[C@H]3[C@@H](CC=C4CC(=O)CC[C@@]43C)[C@@H]2CC[C@]12O[C@@H]1C[C@H](C)CN(CCNC(=O)c3ccc(C(=O)c4ccccc4)cc3)[C@H]1[C@H]2C [Compound 21, 3-Keto, N—(N′-(4-benzoylbenzoyl)aminoethyl)cyclopamine]",IC50,[1],> 10 nM
same,improvement of inhibitory activity by oxidation of the hydroxyl group to a ketone,,approximately two-fold
"CC1=C2C[C@H]3[C@@H](CC=C4C[C@@H](O)CC[C@@]43C)[C@@H]2CC[C@]12O[C@@H]1C[C@H](C)CN(CCNC(=O)CCCCCCCCCCCNC(=O)C(F)(F)F)[C@H]1[C@H]2C [Compound 29, N—(N′—(N″-Trifluoroacetyl aminododecanoyl) aminoethyl)cyclopamine]",IC50,[1],> 100 nM
same,effect of N-alkyl modification on ability to block Shh signaling,,do not significantly diminish
same,effect of addition on inhibitory activity,,accentuate inhibitory activity
"CCC(=O)NCCN1C[C@@H](C)C[C@H]2O[C@]3(CC[C@@H]4C(=C3C)C[C@H]3[C@H]4CC=C4C[C@@H](O)CC[C@@]43C)[C@H](C)[C@@H]21 [Compound 30, N—(N′-Propionyl aminoethyl)cyclopamine]",IC50,[1],> 100 nM
"CC1=C2C[C@H]3[C@@H](CC=C4C[C@@H](O)CC[C@@]43C)[C@@H]2CC[C@]12O[C@@H]1C[C@H](C)CN(CCNC(=O)CCCCCNC(=O)CCc3ccccc3)[C@H]1[C@H]2C [Compound 33, N—(N′—(N″-Dihydrocinnamoyl aminocaproyl)aminoethyl)cyclopamine]",effect of N-alkyl modification on ability to block Shh signaling,,do not significantly diminish
same,effect of addition on inhibitory activity,,accentuate inhibitory activity
same,IC50,[2],> 10 nM
"CC1=C2C[C@H]3[C@@H](CC=C4CC(=O)CC[C@@]43C)[C@@H]2CC[C@]12O[C@@H]1C[C@H](C)CN(CCNC(=O)CCCCCNC(=O)CCc3ccccc3)[C@H]1[C@H]2C [Compound 34, 3-Keto, N—(N′—(N″-dihydrocinnamoylaminocaproyl)aminoethyl)cyclopamine]",potency relative to cyclopamine,,ten-fold greater
same,IC50,"Mus musculus, NIH3T3, concentration for 50% inhibition of Sonic hedgehog induction",30 nM
same,IC50,[1],> 10 nM
same,improvement of inhibitory activity by oxidation of the hydroxyl group to a ketone,,approximately two-fold
"CC1=C2C[C@H]3[C@@H](CC=C4C[C@@H](O)CC[C@@]43C)[C@@H]2CC[C@]12O[C@@H]1C[C@H](C)CN(CCNC(=O)CCCCCNC(=O)CCCCC3SC[C@@H]4NC(=O)N[C@H]34)[C@H]1[C@H]2C (stereo partly drawn) [Compound 40, N—(N′—(N″-Biotinoyl aminocaproyl)aminoethyl)cyclopamine]",IC50,[1],> 100 nM
same,effect of N-alkyl modification on ability to block Shh signaling,,do not significantly diminish
"CC1=C2C[C@H]3[C@@H](CCC4=CC(=O)CC[C@@]43C)[C@@H]2CC[C@]12O[C@@H]1C[C@H](C)CN(CCNC(=O)CCCCCNC(=O)CCCCC3SC[C@@H]4NC(=O)N[C@H]34)[C@H]1[C@H]2C (stereo partly drawn) [Compound 41, 3-Enone, N—(N′—(N″-Biotinoylaminocaproyl)aminoethyl)cyclopamine]",effect of enone formation (C5-C6 olefin migrated to C4-C5) on potency,,does not appear to affect compound potency
same,IC50,[1],> 100 nM
same,improvement of inhibitory activity by oxidation of the hydroxyl group to a ketone,,approximately two-fold
"CCC(=O)NCCCCCC(=O)NCCN1C[C@@H](C)C[C@H]2O[C@]3(CC[C@@H]4C(=C3C)C[C@H]3[C@H]4CC=C4C[C@@H](O)CC[C@@]43C)[C@H](C)[C@@H]21 [Compound 42, N—(N′—(N″-Propionyl aminocaproyl)aminoethyl)cyclopamine]",IC50,[1],> 100 nM
"CC1=CC(C)=[N+]2C1=Cc1ccc(CCC(=O)NCCCCCC(=O)NCCN3C[C@@H](C)C[C@H]4O[C@]5(CC[C@@H]6C(=C5C)C[C@H]5[C@H]6CC=C6C[C@@H](O)CC[C@@]65C)[C@H](C)[C@@H]43)n1[B-]2(F)F [Compound 43, N—(N′—(N″-BODIPY FL aminocaproyl)aminoethyl)cyclopamine]",effect of N-alkyl modification on ability to block Shh signaling,,do not significantly diminish
same,effect of addition on inhibitory activity,,accentuate inhibitory activity
same,IC50,[2],> 100 nM
"CC(=O)CCC(=O)N[C@@H](Cc1ccc(C(=O)c2ccccc2)cc1)C(=O)NCCN1C[C@@H](C)C[C@H]2O[C@]3(CC[C@@H]4C(=C3C)CC3[C@H]4CC=C4C[C@@H](O)CC[C@@]43C)C(C)[C@@H]21 (stereo partly drawn) [Compound 50, N—(N′—(N″-Levulinoyl(4-benzoylphenylalaminoyl))aminoethyl)cyclopamine]",IC50,[1],> 1000 nM
same,effect of N-alkyl modification on ability to block Shh signaling,,significantly abrogate biological activity
"CC(=O)CCC(=O)N[C@@H](Cc1ccc(C(=O)c2ccccc2)cc1)C(=O)NCCN1C[C@@H](C)C[C@H]2O[C@]3(CC[C@@H]4C(=C3C)CC3[C@H]4CC=C4CC(=O)CC[C@@]43C)[C@H](C)[C@@H]21 (stereo partly drawn) [Compound 51, 3-Keto N—(N′—(N″-Levulinoyl(4-benzoylphenylalaminoyl))aminoethyl) cyclopamine]",IC50,[1],> 1000 nM
same,improvement of inhibitory activity by oxidation of the hydroxyl group to a ketone,,approximately two-fold
"CC1=C2C[C@H]3[C@@H](CC=C4C[C@@H](O)CC[C@@]43C)[C@@H]2CC[C@]12O[C@@H]1C[C@H](C)CN(CCNC(=O)C(CCCCNC(=O)CCCCCNC(=O)CCCC[C@@H]3SC[C@@H]4NC(=O)N[C@@H]43)NC(=O)c3ccc(C(=O)c4ccccc4)cc3)[C@H]1[C@H]2C (stereo partly drawn) [Compound 58, N—(N′—(N″,N′″-(4-Benzoylbenzoyl)(N″″-biotinoylaminocaproyl)lysine)aminoethyl)cyclopamine]",IC50,[1],> 10000 nM
"N—(N′—(N″,N′″-(4-Benzoylbenzoyl) (N″″-digoxigenin 3-O-methylcarbonyl aminocaproyl)lysine)aminoethyl)cyclopamine [Compound 57]",IC50,[2],> 10000 nM
N—(N′—(N″-Azidoiodophenylpropionyl aminocaproyl)aminoethyl)cyclopamine [Compound 39],effect of N-alkyl modification on ability to block Shh signaling,,do not significantly diminish
same,effect of addition on inhibitory activity,,accentuate inhibitory activity
same,IC50,[2],> 100 nM
